According to patent US20220324835A1 (Nurix Therapeutics, Inc., priority 2018, published 2022):

What was measured:
Type in all cases: cell-based
[1] = system: primary human total T-cells; assay: T-cell activation assessed by CD69 expression
From the text: (§1) Peripheral blood mononuclear cells (PBMC) were obtained either: 1) by using Ficoll-Paque™ (GE Healthcare) for separation of peripheral blood hematopoietic cells from buffy coats of healthy human donors; or 2) directly from FeukoPak donations. Total human primary T-cells were isolated from the PMBCs utilizing negative selection with commercial kits following the manufacturer's protocol (Miltenyi Catalog #130-096-535 (i.e., cocktail of antibodies against surface markers CD14, CD15, CD16, CD19, CD34, CD36, CD56, CD123 and CD235a are incubated with the PBMCs before passing the samples by magnetic beads for removal of cells expressing those surface markers) or StemCells Catalog #17951) to yield >95% CD3+ cells as assessed by flow cytometry. For measurement of cell proliferation, cells were labeled with Cell Trace Violet (Invitrogen) following manufacturer's protocol prior to activation by stimulation with anti-CD3 antibody alone or in combination with anti-CD28 antibody. The Cbl-b inhibitor was added to 1×10^5 cells per well at multiple concentrations (e.g., 10 μM, 1.11 μM, or 0.123 μM) with a final DMSO concentration of <0.1%. The plate was incubated for one hour at 37° C. in 5% CO2. Following incubation with the Cbl-b inhibitor, primary human total T-cells were stimulated with either plate bound anti-CD3 antibody (OKT3) alone or plate bound anti-CD3 antibody (OKT3) with soluble anti-CD28 antibody (28.2) (Life Technologies). To prepare plates with plate bound anti-CD3 antibody (OKT3), 96-well round bottom tissue culture plates were coated with 100 μl of anti-CD3 antibody (OKT3) at 10 μg/mL for 4 hours at 37° C. 5% CO2 in phosphate buffered saline (PBS). The plates were washed with PBS prior to adding the cells with or without soluble anti-CD28 antibody (28.2) to each well at a final concentration of 5 μg/mL. Cells were stimulated for 48 hours prior to harvesting the cell free supernatant and staining the cell population for surface marker assessment by flow cytometry. Supernatants were analyzed for cytokine secretion (e.g., GM-CSF, IFNγ and TNFα) by ELISA (R&D Systems, Peprotech or Life Technologies) or Luminex multiplex kits (Procarta Life Technologies) following manufacturer's protocol. Cells were stained with anti-CD69 (BD Biosciences) to assess levels of surface markers of activation. Proliferation was measured by flow cytometry and data was analyzed with FlowJo v7.6.5 or v10. Readouts were reported as fold change over baseline. In some embodiments, baseline was the measurement obtained from total human T-cells stimulated with anti-CD3 antibody alone, wherein the cells were not incubated with a Cbl-b inhibitor. In some embodiments, baseline was the measurement obtained from total human T-cells stimulated with anti-CD3 antibody and anti-CD28 antibody, where the cells were not incubated with a Cbl-b inhibitor.
(§2) Cbl-b inhibitors were tested to determine their ability to induce or enhance secretion of cytokines from T-cells (e.g., GM-CSF, IFNγ and TNFα) and/or surface expression of cell surface markers on T-cells (e.g., CD69) that is indicative of T-cell activation. Cbl-b inhibitors were also tested to determine their ability to induce or enhance T-cell proliferation. Cbl-b inhibitors were tested for their effects on T-cell activation in the presence of costimulation and where conditions were suboptimal for priming.
(§3) Readouts for T-cell activation were reported as fold change over baseline. Baseline for this study was the measurement obtained from total human T-cells stimulated with anti-CD3 antibody alone or anti-CD3 antibody in combination with soluble anti-CD28 antibody, where the cells were not incubated with a Cbl-b inhibitor. For T-cells stimulated with anti-CD3/anti-CD28 or with anti-CD3 alone changes greater than 1,2-fold over baseline for % positive CD69 staining and greater than 2-fold over baseline for % total proliferating cells were considered a significant and positive response (Table 4a). […]

[2] = system: primary human total T-cells; assay: T-cell activation assessed by cell proliferation (Cell Trace Violet)
From the text: as §1, §2, §3

[3] = system: primary human total T-cells; assay: T-cell activation assessed by cytokine secretion (GM-CSF, IFNγ, TNFα)
From the text: as §1, §2, §3

[4] = CD3/CD28 stimulation, CD4 T-cells, read-out: % CD69+ (CD4)
[5] = CD3/CD28 stimulation, CD8 T-cells, read-out: % CD69+ (CD8)
[6] = CD3 alone stimulation, CD4 T-cells, read-out: % CD69+ (CD4)
[7] = CD3 alone stimulation, CD8 T-cells, read-out: % CD69+ (CD8)
[8] = CD3/CD28 stimulation, CD4 T-cells, read-out: % CP (cell proliferation) (CD4)
[9] = CD3/CD28 stimulation, CD8 T-cells, read-out: % CP (cell proliferation) (CD8)
[10] = CD3 alone stimulation, CD8 T-cells, read-out: % CP (cell proliferation) (CD8)
[11] = CD3/CD28 stimulation, read-out: GM-CSF secretion
[12] = CD3/CD28 stimulation, read-out: IFNγ secretion
[13] = CD3/CD28 stimulation, read-out: TNFα secretion
[14] = CD3 alone stimulation, read-out: GM-CSF secretion
[15] = CD3 alone stimulation, read-out: IFNγ secretion
[16] = CD3 alone stimulation, read-out: TNFα secretion

Compound	fold induction at 1.11 µM [1, 4]	fold induction at 10 µM [1, 4]	fold induction at 1.11 µM [1, 5]	fold induction at 10 µM [1, 5]	fold induction at 1.11 µM [1, 6]	fold induction at 10 µM [1, 6]	fold induction at 1.11 µM [1, 7]	fold induction at 10 µM [1, 7]	fold induction at 1.11 µM [2, 8]	fold induction at 10 µM [2, 8]	fold induction at 1.11 µM [2, 9]	fold induction at 10 µM [2, 9]	fold induction at 1.11 µM [2, 10]	fold induction at 10 µM [2, 10]	fold induction at 1.11 µM [3, 11]	fold induction at 1.11 µM [3, 12]	fold induction at 1.11 µM [3, 13]	fold induction at 10 µM [3, 11]	fold induction at 10 µM [3, 12]	fold induction at 10 µM [3, 13]	also measured
Cn1cnnc1CC1(c2cccc(NC(=O)c3nc4c(C(F)(F)F)cccc4[nH]3)c2)COC1 [Compound 335, N-(3-{3-[(4-methyl-1,2,4-triazol-3-yl)methyl]oxetan-3-yl}phenyl)-4-(trifluoromethyl)-1H-1,3-benzodiazole-2-carboxamide]	1.4 to 1.6	> 1.6	1.2 to 1.4	1.2 to 1.4	> 1.6	> 1.6	1.2 to 1.4	1.4 to 1.6	> 4	> 4	3.01 to 4	3.01 to 4	> 4	> 4	1.51 to 2	> 4	1.51 to 2	> 4	2.01 to 3	2.01 to 4	fold induction at 1.11 µM [3, 14]: ≤ 1.5; fold induction at 1.11 µM [3, 15]: < 2; fold induction at 1.11 µM [3, 16]: 1.51 to 2; fold induction at 10 µM [3, 14]: 2.01 to 4; fold induction at 10 µM [3, 15]: 2.01 to 3; fold induction at 10 µM [3, 16]: 1.51 to 2
Cc1cc(C(=O)Nc2cccc(C3(Cc4nncn4C)COC3)c2)nc(C2CC2)n1 [Compound 336, 2-cyclopropyl-6-methyl-N-(3-(3-((4-methyl-4H-1,2,4-triazol-3-yl)methyl)oxetan-3-yl)phenyl)pyrimidine-4-carboxamide]	1.4 to 1.6	1.4 to 1.6	1.2 to 1.4	1.2 to 1.4	1.4 to 1.6	> 1.6	1.2 to 1.4	1.4 to 1.6	> 4	> 4	3.01 to 4	> 4	> 4	> 4	2.01 to 4	2.01 to 3	2.01 to 4	> 4	> 4	2.01 to 4	fold induction at 1.11 µM [3, 14]: 2.01 to 4; fold induction at 1.11 µM [3, 15]: 2.01 to 3; fold induction at 1.11 µM [3, 16]: 1.51 to 2; fold induction at 10 µM [3, 14]: 2.01 to 4; fold induction at 10 µM [3, 15]: > 4; fold induction at 10 µM [3, 16]: 1.51 to 2
Cc1n[nH]c(C)c1-c1cc2c(c(C(F)(F)F)c1)CN(c1cccc(C3(Cc4nncn4C)COC3)c1)C2=O [Compound 385, 6-(3,5-dimethyl-1H-pyrazol-4-yl)-2-(3-{3-[(4-methyl-4H-1,2,4-triazol-3-yl)methyl]oxetan-3-yl}phenyl)-4-(trifluoromethyl)-2,3-dihydro-1H-isoindol-1-one]	1.2 to 1.4	1.4 to 1.6	1.2 to 1.4	1.2 to 1.4	1.4 to 1.6	> 1.6	1.2 to 1.4	1.4 to 1.6	> 4	> 4	2.01 to 3	3.01 to 4	3.01 to 4	> 4	1.51 to 2	< 2	1.51 to 2	2.01 to 4	> 4	2.01 to 4	fold induction at 1.11 µM [3, 14]: 1.51 to 2; fold induction at 1.11 µM [3, 15]: < 2; fold induction at 1.11 µM [3, 16]: ≤ 1.5; fold induction at 10 µM [3, 14]: 2.01 to 4; fold induction at 10 µM [3, 15]: < 2; fold induction at 10 µM [3, 16]: 1.51 to 2
C[C@H](Cc1nncn1C)c1cccc(N2Cc3c(cc(CN4CC(O)C4)cc3C(F)(F)F)C2=O)c1 [Compound 393, (R)-6-((3-hydroxyazetidin-1-yl)methyl)-2-(3-(1-(4-methyl-4H-1,2,4-triazol-3-yl)propan-2-yl)phenyl)-4-(trifluoromethyl)isoindolin-1-one]	≤ 1.2	1.2 to 1.4	≤ 1.2	≤ 1.2	1.2 to 1.4	1.2 to 1.4	≤ 1.2	≤ 1.2	< 2	3.01 to 4	< 2	2.01 to 3	< 2	< 2	≤ 1.5	2.01 to 3	≤ 1.5	1.51 to 2	> 4	1.51 to 2	fold induction at 1.11 µM [3, 14]: ≤ 1.5; fold induction at 1.11 µM [3, 15]: < 2; fold induction at 1.11 µM [3, 16]: ≤ 1.5; fold induction at 10 µM [3, 14]: ≤ 1.5; fold induction at 10 µM [3, 15]: < 2; fold induction at 10 µM [3, 16]: ≤ 1.5
C[C@H](Cc1nncn1C)c1cccc(N2Cc3c(cc(CN4CC(C)(O)C4)cc3C(F)(F)F)C2=O)c1 [Compound 397]	1.4 to 1.6	1.4 to 1.6	1.2 to 1.4	1.2 to 1.4	> 1.6	> 1.6	1.2 to 1.4	1.4 to 1.6	> 4	> 4	3.01 to 4	> 4	> 4	> 4	2.01 to 4	2.01 to 3	2.01 to 4	> 4	> 4	2.01 to 4	fold induction at 1.11 µM [3, 14]: 2.01 to 4; fold induction at 1.11 µM [3, 15]: < 2; fold induction at 1.11 µM [3, 16]: 1.51 to 2; fold induction at 10 µM [3, 14]: 2.01 to 4; fold induction at 10 µM [3, 15]: < 2; fold induction at 10 µM [3, 16]: 1.51 to 2
